According to PMC11964630 (Journal of Pharmaceutical Analysis, 2024):

System: U87MG xenograft-bearing NOD/SCID mice
Assay: Ex vivo biodistribution in U87MG xenograft model
Parameters: species or system mouse
Conditions: single i.v. dose of atezolizumab 20 mg/kg, 24 h before [^18F]AlF-NOTA-PCP2

**Q.** For “atezolizumab: anti-PD-L1 antibody used for blockade, 20 mg/kg”, which “decrease in tracer uptake in U87MG tumors” value is on record?
**A.** 92.2%
